In assay [1] the test system is IL-4 stimulated expression of CD23 in human Ramos B cells (JAK-1 and JAK-3). Nature of the assay: Assay for Ramos B-Cell Line Stimulated with IL-4 (CD23 upregulation, FACS). In kind it is cell-based. The following applies: read-out: IC50, Example 41. In short, it runs like this: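 Read-out is surface CD23 by FACS after anti-CD23-PE staining, giving IC50. Before this, cells were stimulated 20-24 h with 50 units/mL (final) human IL-4, following 1 h compound or vehicle pre-treatment at 37 °C; log-phase Ramos B cells, 5×10^4 per well in 5% serum RPMI.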

For assay [2], the system named is up-regulation of ICAM-1 (CD54) by IFNγ in A549 lung epithelial cells. The assay is described as follows: A549 Epithelial Line Stimulated with IFNγ (ICAM-1 surface expression, FACS). In kind it is cell-based, human. To be noted: ICAM-1 expression by FACS, read-out: IC50, Example 43. An excerpt: (§1) The activity of the compounds of the invention may additionally be characterized by assaying the effect of the 2,4-substituted pyrimidinediamine compounds described herein on A549 lung epithelial cells and U937 cells. A549 lung epithelial cells and U937 cells up-regulate ICAM-1 (CD54) surface expression in response to a variety of different stimuli. Therefore, using ICAM-1 expression as readout, test compound effects on different signaling pathways can be assessed in the same cell type. Stimulation with IL-1β through the IL-1β receptor activates the TRAF6/NFκB pathway resulting in up-regulation of ICAM-1. IFNγ induces ICAM-1 up-regulation through activation of the JAK1/JAK2 pathway. The up-regulation of ICAM-1 can be quantified by flow cytometry across a compound dose curve and EC50, values are calculated. An exemplary assays of this type are described in greater detail in Examples 43 and 44
A549 lung epithelial cells up-regulate ICAM-1 (CD54) surface expression in response to a variety of different stimuli. Therefore, using ICAM-1 expression as readout, compound effects on different signaling pathways can be assessed in the same cell type. IFNγ up-regulates ICAM-1 through activation of the JAK/Stat pathway. In this example, the up-regulation of ICAM-1 by IFNγ was assessed.
The A549 lung epithelial carcinoma cell line originated from the American Type Culture Collection. Routine culturing was with F12K media (Mediatech Inc., Lenexa, KS, Cat. No. 10-025-CV) with 10% fetal bovine serum, 100 I.U. penicillin and […] streptomycin (complete F12k media). Cells were incubated in a humidified atmosphere of 5% CO2 at 37° C. Prior to use in the assay, A549 cells were washed with PBS and trypsinized (Mediatech Inc., Cat. No. 25-052-CI) to lift the cells. The trypsin cell suspension was neutralized with complete F12K media and centrifuged to pellet the cells. The cell pellet was resuspended in complete F12K media at a concentration of 2.0×10^5/mL. Cells were seeded at 20,000 per well, 100 μL total volume, in a flat bottom tissue culture plate and allowed to adhere overnight.
On day two, A549 cells were pre-incubated with a 2,4-substituted pyrimidinediamine test compound or DMSO (control) (Sigma-Aldrich, St. Louis, MO, Catalog No. D2650) for 1 hour. The cells were then stimulated with IFNγ (75 ng/mL) (Peprotech Inc., Rocky Hill, NJ, Cat. No. 300-02) and allowed to incubate for 24 hours. The final test compound dose range was 30 μM to 14 nM in 200 μL F12K media containing 5% FBS, 0.3% DMSO.
On day three, the cell media was removed and the cells were washed with 200 μL PBS (phosphate buffered saline). Each well was trypsinized to dissociate the cells, then neutralized by addition of 200 μL complete F12K media. Cells were pelleted and stained with an APC conjugated mouse anti-human ICAM-1 (CD54) (BD Pharmingen, San Diego, CA, Catalog #559771) antibody for 20 minutes at 4° C. Cells were washed with ice cold FACS buffer (PBS+2% FBS) and surface ICAM-1 expression was analyzed by flow cytometry. Detection was performed using a BD LSR I System Flow Cytometer, purchased from BD Biosciences of San Jose, California Events were gated for live scatter and the geometric mean was calculated (Becton-Dickinson CellQuest software version 3.3, Franklin Lakes, NJ). Geometric means were plotted against the compound concentration to generate a dose response curve.

Assay [3] concerns up-regulation of ICAM-1 (CD54) by IFNγ in U937 human monocytic cells. The assay is described as follows: U937 IFNγ ICAM1 FACS Assay. In kind it is cell-based. To be noted: ICAM-1 expression by FACS, read-out: IC50, Example 44.
Source text: as §1, with “calculated.” for “calculated. An exemplary assays of this type are described in greater detail in Examples 43 and 44”
U937 human monocytic cells up-regulate ICAM-1 (CD54) surface expression in response to a variety of different stimuli. Therefore, using ICAM-1 expression as readout, compound effects on different signaling pathways can be assessed in the same cell type. IFNγ up-regulates ICAM-1 through activation of the JAK/Stat pathway. In this example, the up-regulation of ICAM-1 by IFNγ was assessed.
The U937 human monocytic cell line was obtained from ATCC of Rockville Maryland, catalog number CRL-1593.2, and cultured in RPM1-1640 medium containing 10% (v/v) FCS. U937 cells were grown in 10% RPMI. The cells were then plated at a concentration of 100,000 cells per 160 μL in 96 well flat bottom plates. […] Then 4 μL of test compound was transferred to 76 μL of 10% RPMI resulting in a 10× solution (100 μM test compound, 5% DMSO). For control wells, 4 μL of DMSO was diluted into 76 μL 10% RPMI.
The assay was performed in duplicate with 8 points (8 3-fold dilution concentrations from […]) and with 4 wells of DMSO only (control wells) under stimulated conditions and 4 wells of DMSO only under unstimulated conditions.
The diluted compound plate was mixed 2× using a multimek (Beckman Coulter of Brea, California) and then 20 μL of the diluted compounds was transferred to the 96 well plate containing 160 μL of cells, which were then mixed again twice at low speeds. The cells and compounds were then pre-incubated for 30 minutes at 37° C. with 5% CO2.
The 10× stimulation mix was made by preparing a 100 ng/mL solution of human IFNγ in 10% RPMI. […] The cells were kept under conditions for stimulation for 18-24 hours at 37° C. with 5% CO2.
The cells were transferred to a 96 well round bottom plate for staining and then kept on ice for the duration of the staining procedure. Cells were spun down at 1000 rpm for 5 minutes at 4° C., following which the supernatant was removed. Following removal of the supernatant, 1 μL APC conjugated mouse anti-human ICAM-1 antibody was added per 100 μL FACS buffer. The cells were then incubated on ice in the dark for 30 minutes. Following incubation, […] of FACS buffer was added and the cells were centrifuged at 1000 rpm for 5 minutes at 4° C., following which the supernatant was removed. After removal of the supernatant, 200 μL of FACS buffer was added and the cells were resuspended. After suspension, the cells were centrifuged at 1000 rpm for 5 min at 4° C. Supernatant was then removed prior to resuspension of the cells in 150 μL FACS buffer.
Detection was performed using a BD LSR I System Flow Cytometer, purchased from BD Biosciences of San Jose, California The live cells were gated for live scatter and the geometric mean of ICAM-APC was measured (Becton-Dickinson CellQuest software version 3.3, Franklin Lakes, NJ). Both % live cells and ICAM-1 expression was analyzed. The assays for the test compounds were carried out in parallel with a control compound of known activity.

The mark [4] stands for this setting: Ramos B-cell line stimulated with IL-4, CD23 expression by FACS.
Where [5] appears, read: A549 epithelial line stimulated with IFNγ.
Where [6] appears, read: Homo sapiens, Ramos, Ramos B-cell line stimulated with IL-4, CD23 expression by FACS.
[7] abbreviates: Homo sapiens, A549, A549 epithelial line stimulated with IFNγ.
Where [8] appears, read: U937 cells stimulated with IFNγ.

Read-outs that look alike come from different tables or passages of the source.

Regarding `CN1CCN(S(=O)(=O)c2cccc(Nc3ncc(F)c(Nc4cccc(OCC#N)c4)n3)c2)CC1` [Compound I-5, N4-(3-Cyanomethoxy)phenyl-5-fluoro-N2-[3-(4-methylpiperazin-1-yl)sulfonyl]phenyl-2,4-pyrimidinediamine], the results for the IC50 in assay [1] (setting [4]) and in assay [2] (setting [5]) were 1650 nM and 29900 nM, respectively.
In the same order, the values of `CN1CCN(S(=O)(=O)c2ccc(Nc3ncc(F)c(Nc4cccc(OCC#N)c4)n3)cc2)CC1` [Compound I-6, N4-(3-Cyanomethoxy)phenyl-5-fluoro-N2-[4-(4-methylpiperazin-1-yl)sulfonyl]phenyl-2,4-pyrimidinediamine] are 522 nM and 21000 nM.
Consider `Cc1cc(Nc2nc(Nc3ccc(S(=O)(=O)N4CCN(C)CC4)cc3)ncc2F)cc(C)c1OCC#N` [Compound I-40, N4-(4-Cyanomethoxy-3,5-dimethylphenyl)-5-fluoro-N2-[4-(4-methylpiperazin-1-yl)sulfonylphenyl]-2,4-pyrimidinediamine], for which the half-maximal inhibitory concentration (IC50) in assay [1] (setting [6]) came to 308 nM; in assay [2] (setting [7]) it was 31000 nM.
In the same order, the values of `N#CCOc1ccc(Nc2nc(Nc3ccc(S(N)(=O)=O)cc3)ncc2F)cc1Cl` [Compound I-41, N2-(4-Aminosulfonylphenyl)-N4-(3-chloro-4-cyanomethoxyphenyl)-5-fluoro-2,4-pyrimidinediamine] are 37.4 nM and 10200 nM.
In the case of `CN1CCN(S(=O)(=O)c2ccc(Nc3ncc(F)c(Nc4ccc(CC#N)cc4)n3)cc2)CC1` [III-6, N4-(4-Cyanomethyl)phenyl-5-fluoro-N2-[4-(4-methylpiperazin-1-yl)sulfonyl]phenyl-2,4-pyrimidinediamine], the figures for the IC50 in assay [1] (setting [4]) and in assay [2] (setting [5]) were 781 nM and 30700 nM, respectively.
Turning to `CCN(CC)CCNS(=O)(=O)c1ccc(Nc2ncc(F)c(Nc3ccc(Cc4ccncc4)cc3)n2)cc1` [III-67, N2-[4-(2-N,N-Diethylaminoethyl)aminosulfonylphenyl)-5-fluoro-N4-[4-(4-pyridinylmethyl)phenyl]-2,4-pyrimidinediamine], the IC50 in assay [1] (setting [4]) stood at 347 nM; in assay [3] (setting [8]) it was 3050 nM.
Consider `NC(=O)NCc1cccc(Nc2nc(Nc3ccc(S(N)(=O)=O)cc3)ncc2F)c1` [III-113, N4-(3-aminocarbonylaminomethyl)phenyl-N2-(4-aminosulfonyl)phenyl-5-fluoro-2,4-pyrimidinediamine], for which the IC50 in assay [1] (Ramos B cells stimulated with IL-4, CD23 expression by FACS) is 1030 nM; in assay [3] (setting [8]), 345 nM.
Turning to `Cc1c(Cl)cc(Nc2ncc(F)c(Nc3ccc(OC(F)(F)F)c(Cl)c3)n2)cc1S(N)(=O)=O` [VI-14, N2-(3-Aminosulfonyl-5-chloro-4-methylphenyl)-N4-(3-chloro-4-trifluoromethoxyphenyl)-5-fluoro-2,4-pyrimidinediamine], the IC50 was 413 nM in assay [1] (Homo sapiens, Ramos, Ramos B cells stimulated with IL-4, CD23 expression by FACS) and 9270 nM in assay [3] (Homo sapiens, U-937, U937 cells stimulated with IFNγ).

Source of the values: patent US11827628B2, “Compositions and methods for inhibition of the JAK pathway” (Rigel Pharmaceuticals, Inc., priority 2005, dated 2023).
